In PubChem BioAssay (NCI):
Where “and” joins values, the source holds several entries; their conditions need not be identical. Identical values can stand only once.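 Growth conditions: 96-well plates. Treatment: test compound, 48 hours, 5 concentrations. Analysis: linear interpolation between bracketing concentrations; unreached endpoints set to highest concentration. Abbreviation: GI50, concentration required for 50% inhibition of growth. TGI: total growth inhibition.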

Assays:
Assay in all cases: DTP human tumour cell line panel, 48 h
HCC-2998 colon = test system: HCC-2998 colon
HOP-62 NSCLC = test system: HOP-62 NSCLC
HS 578T breast = test system: HS 578T breast
MDA-MB-435 = test system: MDA-MB-435
MOLT-4 leukemia = test system: MOLT-4 leukemia
NCI-H460 lung = test system: NCI-H460 lung
NCI/ADR-RES ovarian = test system: NCI/ADR-RES ovarian
OVCAR-8 ovarian = test system: OVCAR-8 ovarian
SF-295 CNS = test system: SF-295 CNS
SK-MEL-2 melanoma = test system: SK-MEL-2 melanoma

Structure (SMILES)	GI50 (HCC-2998 colon)	TGI (HCC-2998 colon)	GI50 (HOP-62 NSCLC)	TGI (HOP-62 NSCLC)	GI50 (HS 578T breast)	TGI (HS 578T breast)	GI50 (MDA-MB-435)	TGI (MDA-MB-435)	GI50 (MOLT-4 leukemia)	TGI (MOLT-4 leukemia)	GI50 (NCI-H460 lung)	TGI (NCI-H460 lung)	GI50 (NCI/ADR-RES ovarian)	TGI (NCI/ADR-RES ovarian)	GI50 (OVCAR-8 ovarian)	TGI (OVCAR-8 ovarian)	GI50 (SF-295 CNS)	TGI (SF-295 CNS)	GI50 (SK-MEL-2 melanoma)	TGI (SK-MEL-2 melanoma)
COc1cc2ncn(-c3cc(OCc4ccccc4C(F)(F)F)c(C(=O)N(C)C)s3)c2cc1OC	> 25 µM	> 25 µM	> 13.5 µM	> 25 µM	> 25 µM	> 25 µM	> 25000 nM	> 25 µM	> 25 µM	> 25 µM	> 25 µM	> 25 µM	> 17 µM	> 25 µM	17.7 µM	> 25 µM	> 22.6 µM	> 25 µM	> 20200 nM	> 25 µM
O=C(/C=C/c1ccccc1)C(Br)C(Br)c1ccccc1 (stereo not drawn)	1.9 µM	3.63 µM	4.06 µM	14.9 µM	2.36 µM	7.7 µM	1490 nM	3.08 µM	0.602 µM	3 µM	2.37 µM	5.97 µM	3.37 µM	19 µM	2.04 µM	6.38 µM	2.95 µM	10.5 µM	1820 nM	3.6 µM
O=C(NOC[C@H](O)CO)c1ccc(F)c(F)c1Nc1ccc(I)cc1F		2.24 µM	0.00599 µM	> 100 µM	34.5 µM and > 2.97 µM	> 100 µM	< 10 nM and 4.16 nM	> 100 µM	57.9 µM and > 10 µM	> 100 µM	15 µM and > 3.36 µM	> 100 µM	12.3 µM and 6.3 µM	> 100 µM	21.7 µM and > 7.5 µM	> 100 µM	14.5 µM and > 10 µM	> 100 µM	< 10 nM and 3.37 nM	
COc1cc(F)c(F)c(Nc2ccc(I)cc2F)c1NS(=O)(=O)C1(C[C@H](O)CO)CC1	0.0206 µM	> 4.24 µM	0.184 µM	> 10 µM	> 5.43 µM	> 10 µM	65.9 nM	> 10 µM	> 6.02 µM	> 10 µM	1.62 µM	> 10 µM	> 5.58 µM	> 10 µM	> 6.48 µM	> 10 µM	> 5.78 µM	> 10 µM	41.6 nM	> 2.01 µM
[C](#Cc1ccccc1)[Hg][C]#Cc1ccccc1	47.7 µM	82.6 µM	> 100 µM	> 100 µM	> 100 µM	> 100 µM	43200 nM	> 100 µM	34.3 µM	> 100 µM	86.2 µM	> 100 µM	> 100 µM	> 100 µM	26.6 µM	60.9 µM	> 100 µM	> 100 µM	37700 nM	> 100 µM
COc1ccccc1C#Cc1ccccc1C#CCCCCO	17.9 µM	35.4 µM	14.6 µM	> 100 µM	17 µM	55.4 µM	20200 nM	41.8 µM	19.6 µM	96 µM	15.5 µM	34.2 µM	21.9 µM	47.4 µM	22.6 µM	74.9 µM	22.1 µM	45.1 µM	20100 nM	41.6 µM
